Where two headings read alike, the source gives them in different places.
What was measured:
German cockroach males = conditions: cited from earlier work
German cockroaches [1] = conditions: male, German cockroach, in vivo, po
Description: Adult male German cockroaches were obtained directly from German cockroach colonies maintained in the laboratory after a brief exposure to CO2 to facilitate handling. Cohorts of similar age (˜11 weeks old), adult male cockroaches (˜300 individuals) were randomly selected and moved into holding containers (Lock&Lock containers, Lock&Lock Co. Ltd., Dallas, Tex., USA) using a pair of soft tissue forceps. Cockroaches were starved in holding containers for 48 hours. Following starvation, cockroaches were transferred into the fecal collection apparatus. The fecal collection apparatus consisted of two vertically connected holding containers (Lock&Lock Co. Ltd., Dallas, Tex., USA) separated by a mesh screen. Cockroaches were introduced into the upper compartment of the collection apparatus and fecal pellets were collected from the floor of the lower container. The floor of the lower container was sealed with aluminum foil to facilitate the removal of fecal pellets. […] Fecal pellets were collected weekly until a sufficient amount of faeces was obtained to achieve analytical quantification. Quantification of pyriproxyfen was made by standard high-performance liquid chromatography-mass spectrometry (HPLC-MS) developed for pyriproxyfen. […]

German cockroaches [2] = experiment: Reproductive inhibition by harborages contaminated with pyriproxyfen-containing fecal pellets (secondary exposure); type: in vivo, German cockroach
cockroaches = experiment: Efficacy of bait at different pyriproxyfen concentrations; conditions: in vivo
Description: In one embodiment, the bait comprises abamectin at 0.05% and pyriproxyfen at 0.5% by weight. Efficacy was observed from 0.05 to 1.0% of pyriproxyfen. No higher doses were tested due to physical changes to the matrix, but higher amounts could be used by modifying the matrix. Pyriproxyfen is non-repellent so biologically 1.0% is not an absolute upper concentration limit.

## abamectin
German cockroach males; in 5 days, same conditions
  mortality of German cockroach males: 100%

## CC(COc1ccc(Oc2ccccc2)cc1)Oc1ccccn1 (stereo not drawn) [pyriproxyfen]
German cockroaches [1]
  portion of ingested pyriproxyfen present in the frass: ~60%
German cockroaches [2]; consumption of pyriproxyfen contaminated frass (secondary exposure)
  suppression of the reproductive output of exposed cockroaches: 100%
German cockroaches [2]; fecal pellets deposited following consumption of pyriproxyfen
  suppression of reproductive maturation: 100%
cockroaches
  repellency: non-repellent

## N#Cc1nn(-c2c(Cl)cc(C(F)(F)F)cc2Cl)c(N)c1[S+]([O-])C(F)(F)F (stereo not drawn) [fipronil]
German cockroach males; 24-hour post-bait introduction, laboratory studies
  mortality of German cockroach males: 100%
